From US9657351B2, “MRNA-based gene expression for personalizing patient cancer therapy with an MDM2 antagonist” (Hoffmann-La Roche Inc., priority 2013, dated 2017)
Entries after “also recorded” stand apart in the source; their conditions may differ.

Tests used:
P53 = experiment: NP21280 solid tumor trial, tumor biopsy biomarker (p53 IHC); type: in vivo, human; conditions: at C1D10, p=2.88×10−3
Procedure: The predictive mRNA signature is also evaluated in two solid tumor trials (FIG. 1). […] In both clinical trials, a biomarker package that enabled assessment of p53 pathway activation is assessed (p53 IHC, p21 IHC, MDM2 mRNA, and Ki67), MDM2 inhibition activates the P53 pathway and decreases cell proliferation.

[1] = system: patients with relapsed/refractory leukemia (AML); experiment: NO21279 Phase 1 leukemia trial, clinical response (CR, MLFS, HI, PD); type: in vivo, human
Procedure: The performance of the MDM2 antagonist predictive mRNA response signature is tested in the clinical setting with specimens from the NO21279 leukemia trial (FIG. 1). 28 AML patients treated at the MTD are enrolled and completed pretreatment and C1D10 (cycle 1, day 10) sampling. […] The clinical endpoint in NO21279 was divided into 4 categories: Complete Response (CR), Morphologic Leukemia-Free State (MLFS), Hematologic Improvement (HI), and Progressive Disease (PD). Blood leukemia samples and bone marrow biopsy samples were collected at baseline screening, after a single dose (cycle 1 day 2, C1D2) and on last day of dosing (cycle 1, day 10, C1D10) and isolated via MACS® separation^11. The early pharmacodynamic effect of MDM2 antagonism in blood leukemia samples was assessed by measuring MDM2 RT PCR change between baseline and C1D10. Global gene expression profiles were generated for the peripheral blood leukemia cells and bone marrow biopsy samples obtained at baseline, C1D2 and C1D10.
In the NO21279 Phase 1 clinical trial, patients with relapsed/refractory leukemia are treated with ascending doses of COMPOUND A. Specimens from subset of patients treated at the MTD (1500 mg BID×10 days) are evaluated as a part of the current gene expression study. Leukemia samples are collected at baseline, cycle 1 day 2 (C1D2) and cycle 1, day 10 (C1D10) and isolated via MACs separation.
In the NO21279 Phase 1 clinical trial, patients with relapsed/refractory leukemia are treated with ascending doses of RG7112. Specimens from subset of patients treated at the MTD (1500 mg BID×10 days) are evaluated as a part of the current gene expression study. Leukemia samples are collected at baseline, cycle 1 day 2 (C1D2) and cycle 1, day 10 (C1D10) and isolated via MACs separation.
Clinical responses are evaluated and are divided into 4 categories: Complete Response (CR), Morphologic Leukemia-Free State (MLFS), Hematologic Improvement (HI), and Progressive Disease (PD). […] In addition to assessments of baseline samples, treatment samples are also evaluated (Cycle 1, Day 10).

[2] = system: 4-gene mRNA signature score (MDM2, XPC, BBC3, CDKN2A); experiment: NO21279 4-gene mRNA signature score on treatment; type: in vivo, human
Procedure: MDM2 mRNA concentrations were assessed at Roche Molecular Systems by quantitative real-time PCR with 50 ng total RNA from MACs isolated leukemia cells from blood. TaqMan (Invitrogen, Carlsbad, Calif., USA) probes were designed to detect MDM2 mRNA and the reference mRNA, beta-glucuronidase, simultaneously using two different fluorescent reporters. Gene expression profiles were generated using Affymetrix U133 Plus 2.0 microarrays. Probset ID's for the each of the four genes on said U133 Plus 2.0 microarray are: 209375_s_at (for XPC); 205386_s_at and 211832_s_at (MDM2); 211692_s_at (BBC3); 207039_at and 211156_at (CDKN2A). The “mRNA expression level” for one of the 4 genes according to the present invention is the accumulation of all counts falling into the range of exons of a gene (e.g. MDM2). […] The predictive patient signature score according to the present invention is then calculated using the following equation: patient signature score=GMDM2+GXPC+GBBC3−GCDKN2A. G in the formula stands for log 2 transformed mRNA expression levels as obtained from patient samples, for example blood leukemia or bone marrow biopsy samples. For example, for the patient data reported in Table 9 (Example 5), G is log 2 of the mRNA probeset expression of the relevant gene as measured with Affymetrix U133 Plus 2.0 microarrays.
Risk scores are calculated for patients based on their mRNA expression values of the 4 genes at baseline prior to treatment. To ensure a rigorous and an unbiased validation, the compute of the coefficients in the test cohort is not done. However, due to the platform difference and the biological differences between patients and cell lines, in-vitro coefficients for the patient level classifier is not applied.

SW1463 = experiment: COMPOUND A In Vitro Assay; type: cell-based, human
Description: (§1) To generate an MDM2 antagonist therapy predictive signature, the response of MDM2 antagonist therapy in vitro with gene expression profiling (FIG. 1) is combined. A bank of 287 human cancer cell lines, collectively termed the Cell Lines for Oncology/Chugai ACcumulative Tumour EncycLopedia (CELLO/CACTEL), representing a broad array of diverse human cancer tumor types are subject to evaluation using several high-throughput genomic technology platforms. The mutational status of nucleic acids from each cell line is determined by exome sequencing. Messenger RNA (mRNA) expression levels at baseline, prior to MDM2 antagonist therapy, are obtained via RNA sequencing. MDM2 antagonist therapy COMPOUND A, sometimes referred to herein as RG7112, responses are obtained by assays known to those skilled in the art such as RNA sequencing and microarray measurement using Gene Chip Human Genome U133 Plus 2.0 Array. The MDM2 therapy responses are obtained by high throughout screening assays. Depending on their responses to COMPOUND A these cell lines are classified as either sensitive, defined as IC50<=1, or resistant, defined as IC50>=10.
(§2) 281 cells are treated with MDM2 antagonists and the IC50 (therapy response) is generated. The cell lines span a broad range of tumor cell types of derivation.

KMS-12-BM = experiment: COMPOUND A In Vitro Assay; type: cell-based, human; conditions: TP53 mutant cell line
Description: as §1, §2

22Rv1 = experiment: COMPOUND A In Vitro Assay; type: cell-based, human; conditions: for IC50: Homo sapiens
Description: as §1, §2

NCI-H226 = experiment: COMPOUND A In Vitro Assay; type: cell-based, human; conditions: for IC50: Homo sapiens
Description: as §1, §2

[3] = of 28 AML patients treated at the MTD (1500 mg BID×10 days)

CCOc1cc(C(C)(C)C)ccc1C1=N[C@@](C)(c2ccc(Cl)cc2)[C@@](C)(c2ccc(Cl)cc2)N1C(=O)N1CCN(CCCS(C)(=O)=O)CC1 [COMPOUND A]
P53 concentration change from baseline (P53): significantly increase | Response, number of patients with CR ([1]; all 28 patients, NO21279): 3CR, | Response, number of patients with HI ([1]; all 28 patients, NO21279): 6 HI, | Response, number of patients with MLFS ([1]; all 28 patients, NO21279): 4 MLFS, | Response, number of patients with PD ([1]; all 28 patients, NO21279): 15 PD | Response ([1]; individual AML patients (no. 1-28), NO21279, MTD 1500 mg BID×10 days, listed as RG7112): CR (Complete Response (CR)); also recorded: MLFS (Morphologic Leukemia-Free State (MLFS)); also recorded: HI (Hematologic Improvement (HI)); also recorded: PD (Progressive Disease (PD)) | clinical response: number of patients with Complete Response (CR) [1, 3]: 3 | clinical response: number of patients with Hematologic Improvement (HI) [1, 3]: 6 | clinical response: number of patients with Morphologic Leukemia-Free State (MLFS) [1, 3]: 4 | clinical response: number of patients with Progressive Disease (PD) [1, 3]: 15 | median signature score over baseline ([2]; C1D2, CR patients, IQR 1.13-1.15): 1.15 times | median signature score over baseline ([2]; C1D2, HI patients, IQR 1.04-1.10): 1.08 times | median signature score over baseline ([2]; C1D2, MLFS patients, IQR 1.14-1.19): 1.17 times | median signature score over baseline ([2]; C1D2, PD patients, IQR 1.05-1.16): 1.11 times | median signature score over baseline ([2]; C1D10, CR patients, IQR 1.22-1.24): 1.23 times | median signature score over baseline ([2]; C1D10, HI patients, IQR 1.23-1.30): 1.25 times | overall signature score over baseline ([2]; C1D10, IQR 1.88-4.23): 3.05 times | median signature score over baseline ([2]; C1D10, MLFS patients, IQR 1.23-1.31): 1.26 times | median signature score over baseline ([2]; C1D10, PD patients, IQR 1.08-1.21): 1.14 times | IC50 (SW1463; Homo sapiens, Intestine, large, rectum, TP53 Mutant): 1000 nM | response to COMPOUND A (sensitive / resistant) (SW1463; TP53 mutant cell line): sensitive (sensitive, defined as IC50<=1) | response to COMPOUND A (sensitive / resistant) (KMS-12-BM): sensitive (sensitive, defined as IC50<=1) | response to COMPOUND A (sensitive / resistant) (22Rv1; 22Rv1, TP53 mutant cell line): sensitive (sensitive, defined as IC50<=1) | IC50 (22Rv1; 22Rv1, 22Rv1, Prostate, TP53 Mutant): 970 nM | IC50 (22Rv1; 22Rv1, 22Rv1 cells): 1000 nM | IC50 (NCI-H226; NCI-H226, NCI-H226, Lung, TP53 Mutant): 130 nM | IC50 (NCI-H226; NCI-H226, NCI-H226 cells): 100 nM | response to COMPOUND A (sensitive / resistant) (NCI-H226; NCI-H226, TP53 mutant cell line): sensitive (sensitive, defined as IC50<=1)
